Like-named read-outs stand apart in the source and are kept apart here.
Assay: Pharmacokinetics of FTD and TPI in plasma of solid cancer patients given FTD/TPI combination drug, by renal function cohort
Format: in vivo, human
Settings: for CL/F / Cmax / half-life / AUC(0-t): 35 mg/m^2 per once as FTD, oral, twice a day, plasma, mean; for Cmax / half-life / AUC(0-t): human, po; for AUC(0-t): read-out: AUC0-12; for AUC0-12 higher as compared to patients with normal renal function: after repeated administrations, 35 mg/m^2
Protocol: Pharmacokinetic of FTD was studied in patients with solid cancer including colorectal cancer, when performing a treatment of repeating an administration schedule of orally administering an FTD/TPI combination drug (mixture of FTD and TPI in a molar ratio of 1:0.5) in 35 mg/m^2 per once (as FTD, the same applies hereinafter) for 5 consecutive days twice a day, followed by rest for 2 days twice, followed by rest for 14 days, and repeating this procedure as one cycle. […] Blood collection was performed after administration of the FTD/TPI combination drug on Day 1 and Day 12, at predose and at 0.5, 1, 2, 4, 6, 8, 10, 12 hours after administration, and FTD and TPI concentrations in plasma were measured. Pharmacokinetic parameters of FTD and TPI were calculated using the resulting concentrations in the plasma, and the results were shown in Table 1.

[1] = Day 1, Cohort 0: normal renal function
[2] = Day 1, Cohort 1: mild renal impairment (CLcr 60 to 89 mL/min)
[3] = Day 1, Cohort 2: moderate renal impairment (CLcr 30 to 59 mL/min)
[4] = Day 12, Cohort 0: normal renal function
[5] = Day 12, Cohort 1: mild renal impairment (CLcr 60 to 89 mL/min)
[6] = Day 12, Cohort 2: moderate renal impairment (CLcr 30 to 59 mL/min)
[7] = 35 mg/m2, Day 1, Cohort 0: normal renal function
[8] = 35 mg/m2, Day 1, Cohort 1: mild renal impairment (CLcr 60 to 89 mL/min)
[9] = 35 mg/m2, Day 1, Cohort 2: moderate renal impairment (CLcr 30 to 59 mL/min)
[10] = 35 mg/m2, Day 12, Cohort 0: normal renal function
[11] = 35 mg/m2, Day 12, Cohort 1: mild renal impairment (CLcr 60 to 89 mL/min)
[12] = 35 mg/m2, Day 12, Cohort 2: moderate renal impairment (CLcr 30 to 59 mL/min)

CL/F [1]	CL/F [2]	CL/F [3]	CL/F [4]	CL/F [5]	CL/F [6]	Cmax [7]	half-life [7]	AUC(0-t) [7]	Cmax [8]	half-life [8]	AUC(0-t) [8]	Cmax [9]	half-life [9]	AUC(0-t) [9]	Cmax [10]	half-life [10]	AUC(0-t) [10]	Cmax [11]	half-life [11]	Compound	other results
8.72 L/h	10.08 L/h	9.17 L/h	3.29 L/h	4.1 L/h	2.1 L/h	2.88 µg/mL	1.26 h	7.87 µg·h/mL	3.16 µg/mL	1.79 h	7.29 µg·h/mL	2.76 µg/mL	1.9 h	8.13 µg·h/mL	5.24 µg/mL	2.09 h	20.1 µg·h/mL	4.67 µg/mL	2.4 h	O=c1[nH]c(=O)n([C@H]2C[C@H](O)[C@@H](CO)O2)cc1C(F)(F)F [FTD, α,α,α-trifluorothymidine]	AUC(0-t) [11]: 23.4 µg·h/mL; Cmax [12]: 6.01 µg/mL; half-life [12]: 3.22 h; AUC(0-t) [12]: 30.4 µg·h/mL; AUC0-12 higher as compared to patients with normal renal function (patients with mild renal impairment (Cohort 1)): about 16%; AUC0-12 higher as compared to patients with normal renal function (patients with moderate renal impairment (Cohort 2)): about 51%
148.5 L/h	105.1 L/h	64.8 L/h	128.3 L/h	83.1 L/h	62 L/h	0.0465 µg/mL	2.04 h	0.234 µg·h/mL	0.0939 µg/mL	2.33 h	0.38 µg·h/mL	0.1 µg/mL	2.42 h	0.494 µg·h/mL	0.0488 µg/mL	2.61 h	0.247 µg·h/mL	0.0678 µg/mL	2.54 h	Cl.N=C1CCCN1Cc1[nH]c(=O)[nH]c(=O)c1Cl [TPI, 5-chloro-6-[(2-iminopyrrolidine-1-yl)methyl]pyrimidine-2,4(1H,3H)-dione hydrochloride]	AUC(0-t) [11]: 0.383 µg·h/mL; Cmax [12]: 0.112 µg/mL; half-life [12]: 2.63 h; AUC(0-t) [12]: 0.602 µg·h/mL

From US10960004B2, “Method for treating cancer patients with severe renal impairment” (TAIHO PHARMACEUTICAL CO., LTD., priority 2016, dated 2021)
